Patent publication EP4303307A1, “METHOD FOR PRODUCING FLAVOURS USING O-METHYLTRANSFERASE FROM PLEUROTUS” (Justus-Liebig-Universität Gießen Rechtsabteilung, priority 2022, dated 2024)

Legend:
Assay type in all cases: biochemical, P. sapidus
[1] = test system: O-Methyltransferase; test: Enzymatic methylation of further substrates, conversion rates (Table 2); conditions: 34 °C, 500 µM educt, phosphate buffer pH 7,4 (100 mM), 24 h, without shaking; for Produktkonzentration: concentration of the methylated product
Procedure: In Tabelle 2 sind die Umsetzungsraten weiterer Ausführungsbeispiele zusammengestellt, wobei die Reaktionsbedingungen für die Umsetzungen in Tabelle 2 beispielhaft wie folgt ausgewählt wurden: Temperatur 34 °C, jeweils 500 µM Edukt- und Produktkonzentration, Phosphatpuffer pH = 7,4 (100 mM), Reaktionsdauer: 24 h, Durchführung jeweils ohne Schütteln). Tabelle 2: Weitere beispielhaft ausgewählte Umsatzraten

[2] = test system: O-Methyltransferase; test: Enzymatic conversion of the thiol substrate, product detected by GC-MS; conditions: compared with blanks (chemical and chemical-biological)
From the text: Durch die Umsetzung von 2-Methyl-3-furanthiol als Substrat mit O-Methyltransferase wird beispielhaft das breite, Substanzklassen-übergreifende, Substratspektrum der O-Methyltransferase gezeigt. Neben den unter 6. aufgeführten Substraten werden beispielhaft auch Umsetzungen unter Verwendung von 2-Methyl-3-furanthiol durchgeführt.

[3] = test system: O-Methyltransferase; test: Determination of enzyme kinetic parameters (Michaelis-Menten, non-linear regression)
From the text: Bekanntermaßen werden Biokatalysatoren, bzw. Enzyme wie O-Methyltransferasen, auch durch die Bestimmung ihrer jeweiligen enzymkinetischen Parameter unter definierten Bedingungen charakterisiert. Daher werden anhand eines Beispiels auch die enzymkinetischen Parameter der O-Methyltransferase bestimmt. Die Versuchsergebnisse sind in Tabelle 1 zusammengestellt. Mit dem Substrat, gegenüber dem die beispielhaft untersuchte O-Methyltransferase die höchste Aktivität aufweist, sowie dem Cofaktor werden die enzymkinetischen Parameter (Km, vmax) graphisch nach nichtlinearer Regression (Michaelis-Menten, Softwarepaket OriginPro 2020) ermittelt (vgl. Fig. 8, Fig. 8A, Fig. 8B). Zudem wird beispielhaft die katalytische Konstante (kcat) sowie die katalytische Effizienz (kcat/Km) berechnet. Die resultierenden Werte sind zusammengefasst in Tabelle 1 aufgeführt. Tabelle 1: Enzymkinetische Parameter der aus P. sapidus abgeleiteten O-Methyltransferase unter Verwendung von p-Hydroxybenzaldehyd als Substrat
Fig. 1: Korrelation der Anzahl der Transkriptionskopien und der Peakflächen (normiert auf internen Standard) von p-Anisaldehyd der DK5 und MK57 Kulturen. Fig. 2: SDS-PAGE-Gel der O-Methyltransferase (L: Lysat von E. coli, P: Protein nach Reinigung mittels FPLC) und Western Blot Membran (Anti-His-Tag Antikörper). Fig. 3: Beispielhafte Umsetzung von p-Hydroxybenzaldehyd (500 µM) und SAM (500 µM) mittels O-Methyltransferase (0,16 µM) in Davies Puffer über 2 h (jeweils im Triplikat) zur Ermittlung des pH-Optimums; bei den für die Ordinatenachse gewählten willkürlichen Einheiten handelt es sich um die gerätetypische Quantifizierung der Peakfläche von p-Anisaldehyd im Chromatogramm der jeweiligen Probe aus der betreffenden Reaktionslösung nach Abschluss der Umsetzung. Fig. 4: Beispielhafte Umsetzung von p-Hydroxybenzaldehyd (500 µM) und SAM (500 µM) mittels O-Methyltransferase (0,16 µM) in 0,1 M Phosphatpuffer über 2 h bei 24 °C (jeweils im Triplikat) zur weiteren Ermittlung des pHOptimums. […]

Row | Umsetzungsrate [1] [%] | Produktkonzentration [1] | Compound | further results
1 | 2 | 11,5 ± 0,3 µM | O=c1ccc2cc(O)ccc2o1 [6-Hydroxycoumarin] | 
2 |  |  | Cc1occc1S [2-Methyl-3-furanthiol] | Bildung des methylierten Produktes [2]: gesteigerte Bildung des methylierten Produktes
3 |  |  | O=Cc1ccc(O)cc1 [p-Hydroxybenzaldehyd] | katalytische Konstante (kcat) ([3]; calculated, p-Hydroxybenzaldehyd as substrate): 2,5 s^-1; mittlere maximale Geschwindigkeit (vmax) ([3]; substrate with SAM (500 µM), enzyme 0,16 µM, 0,1 M phosphate buffer pH 7,4, 34 °C, 20 min): 43,7 mU mg^-1; Km ([3]; substrate with SAM (500 µM), enzyme 0,16 µM, 0,1 M phosphate buffer pH 7,4, 34 °C, 20 min, read-out: mittlere Michaelis-Menten-Konstante (Km)): 79 µM
4 | 5 | 23,8 ± 0,9 µM | COc1cc(C=O)ccc1O [Vanillin] | 
